Our source for the IC50 values is patent US11440913B2, “Aminoimidazopyridazines as kinase inhibitors” (BRISTOL-MYERS SQUIBB COMPANY, priority 2017, dated 2022).

Assay [1] concerns MLKL phosphorylation in HT29-L23 human colorectal adenocarcinoma cells. In words: MLKL Phosphorylation High-Content Assay. The class given is cell-based. As to conditions: necroptosis induced with TNFα, SMAC mimetic and Z-VAD, 6 h, read-out: pMLKL (IC50). The gist of the method: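 HT29-L23 cells pretreated 30 min at 37 °C with compound (6.25 to 0.106 μM final), then necroptosis induced with TNFα 35 ng/mL, SMAC mimetic 700 nM and Z-VAD 140 nM for 6 h. Fixed cells immunostained for MLKL pS358 and imaged; IC50 and Ymax from 4-parameter logistic fit.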

The target in assay [2] is His-GST-TVMV-hRIPK1(1-324) (Homo sapiens (Human), UniProt Q13546). In words: RIPK1 HTRF Binding Assay. Particulars: HTRF binding, 1 h at rt; read-out: RIPK1 (IC50). The protocol:
A solution was prepared containing 0.2 nM Anti GST-Tb (Cisbio, 61GSTTLB), 90.6 nM probe and 1 nM His-GST-TVMV-hRIPK1(1-324) in FRET Buffer (20 mM HEPES, 10 mM MgCl2, 0.015% Brij-35, 4 mM DTT, 0.05 mg/mL BSA). Using Formulatrix Tempest, the detection antibody/enzyme/probe solution ([…]) was dispensed into wells of a 1536 plate (Black Low Binding Polystyrene 1536 Plate (Corning, 3724)) containing 10 nL of compounds of interest at appropriate concentration in DMSO. The plate was incubated at rt for 1 h. FRET was measured using the EnVision plate reader (Excitation: 340 nm, Emission: 520 nm/[…]). Total signal (0% inhibition) was calculated from wells containing 10 nL DMSO only.
The coding region of human RIPK1(1-324) flanked by NdeI site at 5′ end and stop codon TGA and XhoI site at 3′ end was codon optimized and gene synthesized at GenScript USA Inc. (Piscataway, N.J.) and subcloned into a modified pFastBacl vector (Invitrogen, Carlsbad, Calif.) with N-terminal His-GST-TVMV tag, to generate His-GST-TVMV-hRIPK1(1-324)-pFB. The fidelity of the synthetic fragment was confirmed by sequencing.
(In general: In TR-FRET formats the signal depends on donor and acceptor labels being close together.)

Structures are written as SMILES. Read-outs that look alike come from different tables or passages of the source.

His-GST-TVMV-hRIPK1(1-324), sequence (Q13546 1-324): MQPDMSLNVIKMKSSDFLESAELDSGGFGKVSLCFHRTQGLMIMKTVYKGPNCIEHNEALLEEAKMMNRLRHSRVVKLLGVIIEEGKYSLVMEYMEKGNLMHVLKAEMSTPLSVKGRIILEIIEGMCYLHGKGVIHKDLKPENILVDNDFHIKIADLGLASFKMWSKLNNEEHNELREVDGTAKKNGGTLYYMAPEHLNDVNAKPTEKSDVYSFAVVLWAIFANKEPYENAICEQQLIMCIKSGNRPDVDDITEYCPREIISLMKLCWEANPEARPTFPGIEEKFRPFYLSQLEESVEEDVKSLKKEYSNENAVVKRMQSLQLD

The term IC50 denotes the midpoint of a concentration-inhibition curve. On to `[2H]C([2H])([2H])Oc1nc(C)c(-c2ccc3nc(NC(C)=O)cn3n2)cc1C(=O)NC(C)c1ccccc1OC(F)(F)F` (single isomer, unassigned) [Example 13-2, 5-{2-acetamidoimidazo[1,2-b]pyridazin-6-yl}-2-(D3)methoxy-6-methyl-N-{1-[2-(trifluoromethoxy)phenyl]ethyl}pyridine-3-carboxamide], for which the values for the IC50 in assay [1] and in assay [2] were 1 nM and 6 nM, respectively.
With `COc1cc(C)c(-c2ccc3nc(NC(=O)CO)cn3n2)cc1C(=O)NCc1cc(OC(F)(F)F)ccc1F` [Example 422, N-(2-fluoro-5-(trifluoromethoxy)benzyl)-5-(2-(2-hydroxyacetamido)imidazo[1,2-b]pyridazin-6-yl)-2-methoxy-4-methylbenzamide], the IC50 in assay [1] (Homo sapiens) stood at 75 nM; in assay [2] it was 6 nM.
The corresponding values for `CC(=O)Nc1cn2nc(-c3c(F)c(F)cc(C(=O)NCc4cc(OC(F)(F)F)ccc4F)c3F)ccc2n1` [Example 368, 3-{2-acetamidoimidazo [1,2-b]pyridazin-6-yl}-2,4,5-trifluoro-N-{[2-fluoro-5-(trifluoromethoxy)phenyl]methyl} benzamide] are 31 nM and 25 nM.
The corresponding values for `Cc1nc(C)c(-c2ccc3nc(NC(=O)CO)cn3n2)cc1C(=O)N[C@H](C)c1cc(C(F)(F)F)ccc1F` [Example 92, N-[(1R)-1-[2-fluoro-5-(trifluoromethyl)phenyl]ethyl]-5-[2-(2-hydroxyacet-amido)imidazo[1,2-b]pyridazin-6-yl]-2,6-dimethylpyridine-3-carboxamide] are 127 nM and 48 nM.
The corresponding values for `COc1nc(C)c(-c2ccc3nc(NC(C)=O)cn3n2)cc1C(=O)N(C)Cc1ccccc1OC(F)(F)F` [Example 283, 5-{2-acetamidoimidazo[1,2-b]pyridazin-6-yl}-2-methoxy-N,6-dimethyl-N-{[2-(trifluoromethoxy)phenyl]methyl}pyridine-3-carboxamide] are 67 nM and 16 nM.
Regarding `Cc1ccc(-c2ccc3nc(NC(=O)[C@H](C)O)cn3n2)cc1C(=O)NCc1cc(OC(F)(F)F)ccc1F` [Example 395, (S)-N-(2-fluoro-5-(trifluoromethoxy)benzyl)-5-(2-(2-hydroxypropanamido)imidazo[1,2-b]pyridazin-6-yl)-2-methylbenzamide], the results for the concentration for half-maximal inhibition (IC50) in assay [1] (Homo sapiens) and in assay [2] were 25 nM and 7 nM, respectively.
The corresponding values for `COc1ncc(-c2ccc3nc(NC(C)=O)cn3n2)cc1C(=O)NCc1ccccc1OC(C)C` [Example 165, 5-{2-acetamidoimidazo[1,2-b]pyridazin-6-yl}-2-methoxy-N-{[2-(propan-2-yloxy)phenyl]methyl}pyridine-3-carboxamide] are 11 nM and 4 nM.
The corresponding values for `COc1nc(C)c(-c2ccc3nc(NC(C)=O)cn3n2)cc1C(=O)NCc1cc(F)ccc1OCC1CCCC1` [Example 315, N-{[2-(cyclopentylmethoxy)-5-fluorophenyl]methyl}-5-{2-acetamidoimidazo[1,2-b]pyridazin-6-yl}-2-methoxy-6-methylpyridine-3-carboxamide] are 9 nM and 5 nM.
The corresponding values for `COc1nc(C)c(-c2ccc3nc(NC(C)=O)cn3n2)cc1C(=O)NCC[C@H](O)c1ccc(Cl)cc1` [Example 301, N-[(3S)-3-(4-chlorophenyl)-3-hydroxypropyl]-5-{2-acetamidoimidazo[1,2-b]pyridazin-6-yl}-2-methoxy-6-methylpyridine-3-carboxamide] are 22 nM and 25 nM.
As to `COc1ncc(-c2ccc3nc(NC(C)=O)cn3n2)cc1C(=O)NCc1ccc(F)cc1OC1CCOCC1` [Example 152, 5-{2-acetamidoimidazo[1,2-b]pyridazin-6-yl}-N-{[4-fluoro-2-(oxan-4-yloxy)phenyl]methyl}-2-methoxypyridine-3-carboxamide], the IC50 in assay [1] (Homo sapiens) turned out to be 69 nM; in assay [2], 49 nM.
On to `CC(=O)Nc1cn2nc(-c3cc(C(=O)NCc4ccccc4OCC4CC4)c(C)nc3C)ccc2n1` [Example 83, N-{[2-(cyclopropylmethoxy)phenyl]methyl}-5-{2-acetamidoimidazo[1,2-b]pyridazin-6-yl}-2,6-dimethylpyridine-3-carboxamide], for which the IC50 in assay [1] is 7 nM; in assay [2], 5 nM.
With `CC(=O)Nc1cn2nc(-c3ccc(C)c(C(=O)NCC[C@H](O)c4ccc(Cl)cc4)c3)ccc2n1` [Example 398, N-[(3S)-3-(4-chlorophenyl)-3-hydroxypropyl]-5-{2-acetamidoimidazo [1,2-b]pyridazin-6-yl}-2-methylbenzamide], the values for the concentration for half-maximal inhibition (IC50) in assay [1] (Homo sapiens) and in assay [2] were 2 nM and 5 nM, respectively.
Turning to `CC(=O)Nc1cn2nc(-c3cnc(C)c(C(=O)NCc4cc(F)cc(F)c4O[C@H]4CCOC4)c3)ccc2n1` [Example 187, N-({3,5-difluoro-2-[(3S)-oxolan-3-yloxy]phenyl}methyl)-5-{2-acetamidoimidazo [1,2-b]pyridazin-6-yl}-2-methylpyridine-3-carboxamide], the half-inhibitory concentration (IC50) in assay [1] (Homo sapiens) was found to be 148 nM; in assay [2] it was 18 nM.
As for `Cc1ncc(-c2ccc3nc(NC(=O)CN4CCCC4)cn3n2)cc1C(=O)N[C@H](C)c1cc(C(F)(F)F)ccc1F` [Example 333, N-[(1R)-1-[2-fluoro-5-(trifluoromethyl)-phenyl]ethyl]-2-methyl-5-{2-[2-(pynolidin-1-yl)acetamido]imidazo[1,2-b]pyridazin-6-yl}pyridine-3-carboxamide], the half-inhibitory concentration (IC50) in assay [1] (Homo sapiens) worked out at 218 nM; in assay [2], 91 nM.
The corresponding values for `CC(=O)Nc1nc2ccc(-c3cnc(C)c(C(=O)NCc4cc(OC(F)(F)F)ccc4F)c3)nn2c1C` [Example 253, 5-{2-acetamido-3-methylimidazo[1,2-b]pyridazin-6-yl}-N-{[2-fluoro-5-(trifluoromethoxy)phenyl]methyl}-2-methylpyridine-3-carboxamide] are 53 nM and 14 nM.
The corresponding values for `[2H]C([2H])([2H])[C@@H](NC(=O)c1cnc(C)c(-c2ccc3nc(NC(C)=O)cn3n2)c1)c1cc(OC(F)(F)F)ccc1F` [Example 229, 5-{2-acetamidoimidazo[1,2-b]pyridazin-6-yl}-N-[(1R)-1-[2-fluoro-5-(trifluoromethoxy)phenyl] (2,2,2-deutero)ethyl]-6-methylpyridine-3-carboxamide] are 436 nM and 134 nM.
Take `COc1cc(C)c(-c2ccc3nc(NC(C)=O)cn3n2)cc1C(=O)NCc1cc(OC(F)(F)F)ccc1F` [Example 421, 5-{2-acetamidoimidazo [1,2-b]pyridazin-6-yl}-N-{[2-fluoro-5-(trifluoromethoxy)phenyl]methyl}-2-methoxy-4-methylbenzamide]: the half-maximal inhibitory concentration (IC50) in assay [1] (Homo sapiens) was 10 nM; in assay [2], 2 nM.
Take `CC(CCNC(=O)c1cccc(-c2ccc3nc(NC(=O)c4ccnc(F)c4)cn3n2)c1)c1ccccc1` (centres unmarked) [Example 24, 2-fluoro-N-(6-{3-[(3-phenylbutyl)carbamoyl]phenyl}imidazo[1,2-b]pyridazin-2-yl)pyridine-4-carboxamide]: the values for the IC50 in assay [1] (Homo sapiens) and in assay [2] were 10 nM and 5 nM, respectively.
As for `CC(=O)Nc1cn2nc(-c3cnc(C)c(C(=O)NCc4cc(F)cc(F)c4OC4CCCOC4)c3)ccc2n1` (centres unmarked) [Example 186, N-{[3,5-difluoro-2-(oxan-3-yloxy)phenyl]methyl}-5-{2-acetamidoimidazo[1,2-b]pyridazin-6-yl}-2-methylpyridine-3-carboxamide], the results for the IC50 in assay [1] (Homo sapiens) and in assay [2] were 96 nM and 15 nM, respectively.
